{
  "source": "patent US6723527B2",
  "about": "“Methods for determining toxicity reversing agents” (Board of Regents, The University of Texas System, priority 2001, dated 2004)",
  "type_in_all_cases": "cell-based",
  "key": {"[1]": {"system": "human lymphocytes", "test": "lymphocyte response to varied culture medium components", "protocol": "Culture medium suitable for the growth of human lymphocytes is prepared as follows: To 50 ml of medium buffer 72 mg glucose is added, 1 ml amino acid supplement, 1 ml of a 16.5 mg/ml pyruvate: 2.64 mg/ml cysteine solution, 1 ml of a 1.4 mg/ml choline chloride; 1.8 mg/ml inositol solution, 1 ml of the above indicated vitamin supplement, and 1 ml of a 135 μg/ml adenine solution. The pH is adjusted with dilute NaOH to 7.6. Supplements of the following are then added: 1 ml of the antibiotic supplement, 0.5 ml of a 22.2 mg/ml calcium chloride solution, 0.5 ml of a 24 mg/ml magnesium sulfate solution, 1 ml of a solution of 0.278 mg/ml ferrous sulfate in 0.149 mg/ml EDTA. Deionized water is added to a final volume of 100 ml and the medium is filtered through Nalgene membrane filter units for sterilization. After filtration 0.2 ml of a 1 mg/ml sterile solution of phytohemagglutinin (PHA) is added to each 100 ml of media. PHA is obtained from Sigma Chemical Co. in 5 mg quantities and is diluted with sterile, deionized water.\nAccordingly, a culture medium suitable for determining the growth or other responses of lymphocytes comprises a serum-free, buffered (pH 7.6) solution in deionized water comprises per liter of solution the following components as described in Table 1:\nThe components of the culture medium of Table 1 can be varied. In general, effective amounts of the components are used and can vary widely for the various growth assays of the invention and for individual patients. An effective amount of a component, as used herein, is an amount which will obtain a desired response from the patient. […] For most patients and assays the following ranges of components are satisfactory. The precise amounts of the components to provide an effective response can be determined by simple experimentation with the culture medium.\nThe following is an example of a lymphocyte assay: Previously sterilized 96 well microtiter plates (Corning) are used in this assay procedure. 0.2 milliliters of the culture medium is added to each well. Where necessary, variable supplements up to 10 μl may be added to each tube, or a smaller volume of an appropriately higher concentration of the medium can be added to the tubes and supplements then added to make a final volume of 0.2 ml. The assay is then inoculated with 10 μl of the diluted lymphocyte suspension (22,000 lymphocytes).\nIncubation. The plates are incubated for 4 days at 37° C. in a 5% carbon dioxide atmosphere saturated with water vapor. […]\nHarvesting. […] The filter papers are dried for 5 minutes in a drying oven at 120° C. and then counted on a Matrix 96 Beta Counter (Packard)."}, "[2]": {"system": "human peripheral blood lymphocytes", "test": "lymphocyte growth inhibition assay ([3H]-thymidine incorporation) in chemically defined medium", "details": "for IC50: Homo sapiens, Lymphocyte, read-out: Amount Required to Inhibit Growth by 50%", "protocol": "The medium is also described in the specification above. Various concentrations of amino acids can be used in the medium to determine the effect on growth or growth inhibition.\nHuman peripheral blood was collected from a group of patients in the clinic. […] Experiments were conducted in 96 well microtite plates. Triplicate samples were run in all experiments. […] For reversal of toxicity CoQ10 was added at a concentration of 0.5 μg/ml, and the patient's own plasma at a concentration of 0.1%. All chemicals were obtained from Sigma Chemical Corporation. […] Cells were then pulsed with 10 μl [^3H]-thymidine (0.29×10^-6M final concentration; specific activity […]). Twenty-four hours later, cells were harvested using an Inotech Cell Harvester. Radioactive incorporation was measured using a Packard Matrix 96 Beta Counter."}, "[3]": {"system": "human peripheral blood lymphocytes", "test": "reversal of Lipitor (statin) toxicity in the lymphocyte culture assay", "details": "Lipitor present; CoQ10 0.5 μg/ml, patient's own plasma 0.1%; all subjects", "description": "The present invention also provides a composition comprised in the plasma that has the ability to ameliorate the toxicity of metabolic inhibitors such as the statins. […] It is contemplated that the plasma composition may comprise at least one peptide, a polypeptide, a protein or a small molecule which is associated with or bound to at least one peptide, polypeptide, or protein. The plasma composition may also comprise a lipid moiety, and/or a carbohydrate moiety and/or a nucleic acid component. As the plasma composition is heat-labile, it is contemplated to comprise at least one heat-labile peptide, polypeptide, or protein that may additionally be associated with or bound to at least one small molecule which may be a lipid moiety, and/or a carbohydrate moiety and/or a nucleic acid moiety.\nThe medium used in this study was the same as described previously (See U.S. Pat. No. 4,499,064, herein expressly incorporated by reference) except that the concentration the amino acids used was increased five fold. The medium is also described in the specification above. […]\nHuman peripheral blood was collected from a group of patients in the clinic. Lymphocytes were isolated as described (Shive, 1986), counted in a Coulter Counter, and inoculated into the medium at a concentration of 110,000 cells per ml. […] Radioactive incorporation was measured using a Packard Matrix 96 Beta Counter. […]"}, "[4]": {"details": "patients' lymphocytes, 4 days incubation then 24 h [3H]-thymidine pulse"}, "[5]": {"details": "at concentrations of up to 0.2 mg/ml"}},
  "note": "Read-outs that look alike come from different tables or passages of the source.",
  "data": [
    {"smiles": "Nc1ncnc2nc[nH]c12", "note": "[Adenine]", "values": [
      {"measurement": "concentration in culture medium that is toxic to lymphocytes", "setting": "[1]; medium of Table 1, component varied", "result": 135, "unit": "µg/mL"}
    ]},
    {"smiles": "[Al]", "note": "[Aluminum]", "values": [
      {"measurement": "Amount Required to Inhibit Growth by 50%", "setting": "[2]; [4]", "result": 0.005, "unit": "mg/mL"}
    ]},
    {"smiles": "Cn1c(=O)c2c(ncn2C)n(C)c1=O", "note": "[Caffeine]", "values": [
      {"measurement": "IC50", "setting": "[2]; [4]", "result": 77.6, "unit": "µg/mL"}
    ]},
    {"smiles": "COC1=C(OC)C(=O)C(C/C=C(\\C)CC/C=C(\\C)CC/C=C(\\C)CC/C=C(\\C)CC/C=C(\\C)CC/C=C(\\C)CC/C=C(\\C)CC/C=C(\\C)CC/C=C(\\C)CCC=C(C)C)=C(C)C1=O", "note": "[CoQ10, Co enzyme Q10]", "values": [
      {"measurement": "reversal of Lipitor toxicity", "setting": "[3]", "result": "offers some protection, but it is not totally effective alone"}
    ]},
    {"smiles": "CN1C(=O)CN=C(c2ccccc2)c2cc(Cl)ccc21", "note": "[Diazepam]", "values": [
      {"measurement": "IC50", "setting": "[2]", "result": 20, "unit": "µg/mL"}
    ]},
    {"smiles": "CCO", "note": "[Ethanol]", "values": [
      {"measurement": "IC50", "setting": "[2]; [4]", "result": 10000, "unit": "µg/mL"}
    ]},
    {"smiles": "O[C@H]1[C@H](O)[C@@H](O)[C@H](O)[C@@H](O)[C@H]1O", "note": "[Inositol]", "values": [
      {"measurement": "Emax at 0.018 µg/mL", "setting": "[1]; Homo sapiens, Lymphocyte, inositol 0.018 mg/l in medium, read-out: lymphocyte response, % of maximal response", "result": "~70", "unit": "%"},
      {"measurement": "Emax at 0.18 µg/mL", "setting": "[1]; Homo sapiens, Lymphocyte, inositol 0.18 mg/l in medium, read-out: lymphocyte response, % of maximal response", "result": "90 to 100", "unit": "%"}
    ]},
    {"smiles": "NNC(=O)c1ccncc1", "note": "[Isoniazid]", "values": [
      {"measurement": "IC50", "setting": "[2]; [4]", "result": 548, "unit": "µg/mL"}
    ]},
    {"smiles": "CC(C)c1c(C(=O)Nc2ccccc2)c(-c2ccccc2)c(-c2ccc(F)cc2)n1CC[C@@H](O)C[C@@H](O)CC(=O)O", "note": "[Lipitor, Atorvastatin]", "values": [
      {"measurement": "IC50", "setting": "[2]; [4]", "result": "< 0.1", "unit": "µg/mL"}
    ]},
    {"smiles": "CN(Cc1cnc2nc(N)nc(N)c2n1)c1ccc(C(=O)N[C@@H](CCC(=O)O)C(=O)O)cc1", "note": "[Methothrexate]", "values": [
      {"measurement": "Amount Required to Inhibit Growth by 50%", "setting": "[2]; [4]", "result": "<0.00002", "unit": "mg/mL"}
    ]},
    {"smiles": "CC[C@H](C)C(=O)O[C@H]1C[C@@H](C)C=C2C=C[C@H](C)[C@H](CC[C@@H]3C[C@@H](O)CC(=O)O3)[C@H]21", "note": "[Mevacor, Lovastatin]", "values": [
      {"measurement": "IC50", "setting": "[2]; [4]", "result": "< 0.1", "unit": "µg/mL"}
    ]},
    {"smiles": "N[C@@H](CCC(=O)O)C(=O)[O-].[Na+]", "note": "[Monosodium Glutamate]", "values": [
      {"measurement": "IC50", "setting": "[2]", "result": 7500, "unit": "µg/mL"}
    ]},
    {"smiles": "CC[C@H](C)C(=O)O[C@H]1C[C@H](O)C=C2C=C[C@H](C)[C@H](CC[C@@H](O)C[C@@H](O)CC(=O)O)[C@H]21", "note": "[Pravachol, Pravastatin sodium]", "values": [
      {"measurement": "IC50", "setting": "[2]; [4]", "result": "< 0.1", "unit": "µg/mL"}
    ]},
    {"smiles": "CC(=O)C(=O)O", "note": "[Pyruvate]", "values": [
      {"measurement": "concentration in culture medium that is toxic to lymphocytes", "setting": "[1]; human, 4 days, pH 7.6", "result": 1650, "unit": "µg/mL"}
    ]},
    {"smiles": "CC1=C(/C=C/C(C)=C/C=C/C(C)=C/CO)C(C)(C)CCC1", "note": "[Retanol]", "values": [
      {"measurement": "IC50", "setting": "[2]; [4]", "result": 0.5, "unit": "µg/mL"}
    ]},
    {"smiles": "O=C(O)c1ccccc1O", "note": "[Salicylate]", "values": [
      {"measurement": "Amount Required to Inhibit Growth by 50%", "setting": "[2]; [4]", "result": 0.005, "unit": "mg/mL"}
    ]},
    {"smiles": "Cn1c(=O)c2[nH]cnc2n(C)c1=O", "note": "[Theophyline]", "values": [
      {"measurement": "IC50", "setting": "[2]; [4]", "result": 30, "unit": "µg/mL"}
    ]},
    {"smiles": "CCCC(CCC)C(=O)O", "note": "[Valproic Acid (Depakote), Valproic Acid]", "values": [
      {"measurement": "IC50", "setting": "[2]; patients' lymphocytes, 4 days incubation then 24 h [3H]-thymidine pulse, unit printed μg/ml", "result": "0.4 to 1.2", "unit": "µg/mL"}
    ]},
    {"smiles": "CCC(C)(C)C(=O)O[C@H]1C[C@@H](C)C=C2C=C[C@H](C)[C@H](CC[C@@H]3C[C@@H](O)CC(=O)O3)[C@H]21", "note": "[Zocor, Simvastatin]", "values": [
      {"measurement": "IC50", "setting": "[2]; [4]", "result": "< 0.1", "unit": "µg/mL"}
    ]},
    {"smiles": "N[C@H]1C(O)O[C@H](CO)[C@@H](O)[C@@H]1O", "note": "(stereo partly drawn) [glucoseamine]", "values": [
      {"measurement": "toxicity in lymphocytes", "setting": "[2]; [5]", "result": "did not show toxicity"}
    ]},
    {"smiles": "NCC1(CC(=O)O)CCCCC1", "note": "[neuronton]", "values": [
      {"measurement": "toxicity in lymphocytes", "setting": "[2]; [5]", "result": "did not show toxicity"}
    ]},
    {"smiles": "CCC1(c2ccccc2)C(=O)NC(=O)NC1=O", "note": "[phenobarbitol]", "values": [
      {"measurement": "toxicity in lymphocytes", "setting": "[2]", "result": "did not show toxicity"}
    ]},
    {"smiles": "Cc1nnc2n1-c1ccc(Cl)cc1C(c1ccccc1Cl)=NC2", "note": "[triazolam]", "values": [
      {"measurement": "toxicity in lymphocytes", "setting": "[2]", "result": "did not show toxicity"}
    ]}
  ]
}
